Test results taken from article PMC5471438, “Linaclotide activates guanylate cyclase‐C/cGMP/protein kinase‐II‐dependent trafficking of CFTR in the intestine” (Physiological Reports, 2017).
Entries after “also recorded” stand apart in the source; their conditions may differ. Where no end group is shown, it is not given here.

Columns and labels:
human colonic mucosa = test: Transepithelial short circuit current (Isc) across human ascending colonic mucosa, Ussing chamber; settings: human ascending colon, bumetanide 100 μmol/L basolateral, linaclotide 30 nmol/L and 1000 nmol/L; mean ± SEM (n = 6)
[1] = system: rat proximal colonic mucosa; test: Transepithelial short circuit current (Isc) across rat proximal colonic mucosa, Ussing chamber; set-up: species or system rat (Sprague–Dawley)
CFTR [2] = test: Surface biotinylation of CFTR in C2BBe cells; assay type: cell-based, human; settings: linaclotide 3.27 μmol/L 30 min
CFTR [3] = test: Surface biotinylation of CFTR in T84 cells; assay type: cell-based, human; settings: linaclotide 3.27 μmol/L 30 min
[4] = system: rat proximal colonic mucosa; set-up: method as in 2 sources, one per row (each row's own in cited_ref): ref Tchernychev et al. 2015 ||| ref Vaandrager et al. 1997; settings: rat proximal colon; ref Vaandrager et al. 1997; cited from earlier work
cGKII = cGKII knockdown in C2BBe cells, Western blot; assay type: cell-based, human; settings: lentiviral cGKII shRNA
[5] = system: PKGII-deficient mice intestinal tissue; set-up: method as in Vaandrager et al. 2000; settings: normal and PKGII knockout mice; ref Vaandrager et al. 2000; cited from earlier work
CFTR [6] = test: Surface biotinylation of CFTR in cGKII knockdown C2BBe cells; assay type: cell-based, human; settings: dibutyryl cAMP 1 mmol/L, 30 min, vs PBS
T84 cells = settings: ref Forte et al. 1993; cited from earlier work
human intestine = system: human intestine; set-up: method as in Kuhn et al. 1994; settings: segments of human intestine including ascending colon; ref Kuhn et al. 1994; cited from earlier work
Caco‐2 cell line = settings: human colonic Caco‐2 cell line; ref Castro et al. 2013; Silos‐Santiago et al. 2013; cited from earlier work
Description: (§1) While the increase in intracellular cGMP following ligand activation of GC‐C is well established, the efflux of cGMP from enterocytes is not well studied.

mouse colonic mucosa = settings: apical and basolateral membrane, ref Silos‐Santiago et al. 2013, Tchernychev et al. 2015; cited from earlier work
Description: as §1

rat colonic mucosa = settings: apical and basolateral membrane, ref Silos‐Santiago et al. 2013, Tchernychev et al. 2015; cited from earlier work
Description: as §1

[7] = H8 70 μmol/L pretreatment 30 min
[8] = H7 50 μmol/L pretreatment 30 min

## CCCCNc1cc(C(=O)O)cc(S(N)(=O)=O)c1Oc1ccccc1 [bumetanide]
Human colonic mucosa
  effect of NKCC1 inhibitor on linaclotide‐evoked Isc: significantly attenuated linaclotide‐evoked Isc; also recorded: inhibits GC‐C mediated short circuit current across human colonic mucosa

## CNCCNS(=O)(=O)c1cccc2cnccc12.Cl.Cl [H8]
[1]; rat proximal colon, H8 100 μmol/L 30 min preincubation, NKH477 20 μmol/L basolateral, mean ± SEM (n = 5)
  effect of PKGII inhibitor on NKH477‐evoked Isc: no effect on NKH477‐evoked Isc; also recorded: no effect on PKA‐mediated short circuit current induced by NKH477
[1]; rat proximal colon, H8 100 μmol/L 30 min preincubation, linaclotide 100 nmol/L apical, mean ± SEM (n = 5)
  effect of PKGII inhibitor on linaclotide‐induced Isc: significantly decreased linaclotide‐induced Isc compared to vehicle‐treated tissues; also recorded: significant, it was not complete
CFTR [2]; [7]
  effect of PKG inhibitor on linaclotide‐induced apical CFTR traffic: reduced linaclotide‐induced apical CFTR traffic more potently compared to the PKA inhibitor H7; also recorded: reduce linaclotide‐induced apical trafficking of CFTR
CFTR [3]; [7]
  effect of PKG inhibitor on linaclotide‐induced apical CFTR traffic: reduced linaclotide‐induced apical CFTR traffic more potently compared to the PKA inhibitor H7; also recorded: reduce linaclotide‐induced apical trafficking of CFTR
[4]
  inhibition of GC‐C‐mediated transepithelial ion current by PKGII antagonists: significant but incomplete inhibition

## C=C[C@@]1(C)CC(=O)[C@]2(O)[C@@]3(C)[C@@H](O)CCC(C)(C)[C@@H]3[C@H](OC(=O)CCN(C)C)[C@H](OC(C)=O)[C@@]2(C)O1.Cl [NKH477]
[1]; rat proximal colon, NKH477 20 μmol/L basolateral, mean ± SEM (n = 5)
  NKH477-induced transepithelial ion current: robust transepithelial ion current

## Nc1nc2c(nc(Sc3ccc(Cl)cc3)n2[C@@H]2O[C@@H]3CO[P@@](=O)(S)O[C@H]3[C@H]2O)c(=O)[nH]1 [Rp‐8‐pCPT‐cGMPS]
[4]
  inhibition of GC‐C‐mediated transepithelial ion current by PKGII antagonists: significant but incomplete inhibition

## cGKII shRNA: cGKII‐targeting shRNA (5′‐GGGCCTTAATAACCATTTAGT‐3′), lentiviral pLKO.1 (expressed from pLKO.1 lentiviral vector)
cGKII
  downregulation of cGKII: approximately 50 ± 3%

## O=C(CNc1ccc2ccccc2c1)N/N=C/c1cc(Br)c(O)c(Br)c1O [GlyH‐101]
[1]; GlyH‐101 0.1 mmol/L apical, 20 min after linaclotide 6 nmol/L or 100 nmol/L, mean ± SEM (n = 4)
  inhibition of linaclotide‐evoked Isc by CFTR inhibitor: significantly attenuated the linaclotide‐evoked Isc
[1]; GlyH‐101 0.1 mmol/L, linaclotide 6 nmol/L
  inhibition of linaclotide‐evoked Isc by CFTR inhibitor, low linaclotide: more profound when tissues were stimulated with lower concentrations of linaclotide; also recorded: significantly inhibited Isc induced by low concentration of linaclotide
[1]; GlyH‐101 0.1 mmol/L, linaclotide 100 nmol/L
  inhibition of linaclotide‐evoked Isc by CFTR inhibitor, high linaclotide: less profound

## Nc1cc(-c2ccncc2)c[nH]c1=O [amrinone]
[5]
  transepithelial ion current by PDE3 inhibitor: induced transepithelial ion current in tissues from normal and PKGII knockout mice

## CCCC(=O)Nc1ncnc2c1ncn2[C@@H]1O[C@@H]2COP(=O)(O)O[C@H]2[C@H]1OC(=O)CCC [Dibutyryl cAMP]
CFTR [6]
  surface CFTR in cGKII‐KD cells after cAMP analog: increased apical surface CFTR
CFTR [6]; listed as dibuturyl cAMP
  surface CFTR in cGKII‐KD cells after cAMP analog: able to recruit CFTR to the membrane

## CC1CNCCN1S(=O)(=O)c1cccc2cnccc12 (centres unmarked) [H7]
CFTR [2]; [8]
  effect of PKA inhibitor on linaclotide‐induced apical CFTR traffic: reduced but did not abrogate linaclotide‐induced apical CFTR traffic; also recorded: reduce linaclotide‐induced apical trafficking of CFTR; also recorded: partially abrogated linaclotide‐stimulated traffic
CFTR [3]; [8]
  effect of PKA inhibitor on linaclotide‐induced apical CFTR traffic: reduced but did not abrogate linaclotide‐induced apical CFTR traffic; also recorded: reduce linaclotide‐induced apical trafficking of CFTR; also recorded: partially abrogated linaclotide‐stimulated traffic

## guanylin (PGTCEICAYAACTGC; ends and bridges not checked; cysteine pairing not given here; UniProt Q02747 101-115, looked up) [natural hormone, GC‐C agonist]
T84 cells
  cGMP production via GC‐C activation: increase production of cGMP
Human intestine
  electrogenic Cl− secretion: increase electrogenic Cl^− secretion

## uroguanylin (NDDCELCVNVACTGCL; ends and bridges not checked; cysteine pairing not given here; UniProt Q16661 97-112, looked up) [natural hormone, GC‐C agonist]
T84 cells
  cGMP production via GC‐C activation: increase production of cGMP
Caco‐2 cell line
  cGMP efflux: induce cGMP efflux
Mouse colonic mucosa
  cGMP efflux: induce cGMP efflux
Rat colonic mucosa
  cGMP efflux: induce cGMP efflux
